Results as given in patent publication US12491170B2, “Stable treprostinil prodrugs” (United Therapeutics Corporation, priority 2020, dated 2025).
Where two headings read alike, the source gives them in different places.

Assays:
[1] = Stability in liver microsomes, human; conditions: for AUC: human
[2] = Stability in liver microsomes, rat
[3] = Stability in liver microsomes, dog
[4] = Stability in cryopreserved hepatocytes, human; conditions: for AUC: human
[5] = Stability in cryopreserved hepatocytes, rat; conditions: for AUC: rat
[6] = Stability in cryopreserved hepatocytes, dog; conditions: for AUC: dog
[7] = Stability in human subcutaneous skin homogenate; conditions: for AUC: human
[8] = rat
[9] = dog

CCCCCC(CCC1C(O)CC2Cc3c(cccc3OCC(=O)O)CC21)OC(=O)C(C)(C)C (stereo not drawn) [XLIX]
Trep Concentration 0 min [1]: 0.137 µM
Trep Concentration 10 min [1]: 0.171 µM
Trep Concentration 20 min [1]: 0.174 µM
Trep Concentration 30 min [1]: 0.163 µM
Trep Concentration 60 min [1]: 0.125 µM
AUC [1]: 9.27 µmol·min/L
Trep Concentration 0 min [2]: 0 µM
Trep Concentration 10 min [2]: 0.00512 µM
Trep Concentration 20 min [2]: 0.00637 µM
Trep Concentration 30 min [2]: 0.009 µM
Trep Concentration 60 min [2]: 0.0074 µM
Trep Concentration 0 min [3]: 0.17 µM
Trep Concentration 10 min [3]: 0.325 µM
Trep Concentration 20 min [3]: 0.433 µM
Trep Concentration 30 min [3]: 0.451 µM
Trep Concentration 60 min [3]: 0.558 µM
Trep Concentration (μM) 0 min [4]: 0 µM
Trep Concentration (μM) 15 min [4]: 0.192 µM
Trep Concentration (μM) 30 min [4]: 0.179 µM
Trep Concentration (μM) 60 min [4]: 0.217 µM
Trep Concentration (μM) 120 min [4]: 0.237 µM
AUC [4]: 23.78 µmol·min/L
Trep Concentration (μM) 0 min [5]: 0 µM
Trep Concentration (μM) 15 min [5]: 0.00943 µM
Trep Concentration (μM) 30 min [5]: 0.0122 µM
Trep Concentration (μM) 60 min [5]: 0.0182 µM
Trep Concentration (μM) 120 min [5]: 0.0273 µM
AUC [5]: 2.05 µmol·min/L
Trep Concentration (μM) 0 min [6]: 0 µM
Trep Concentration (μM) 15 min [6]: 0.0727 µM
Trep Concentration (μM) 30 min [6]: 0.111 µM
Trep Concentration (μM) 60 min [6]: 0.19 µM
Trep Concentration (μM) 120 min [6]: 0.258 µM
AUC [6]: 19.88 µmol·min/L
Trep Concentration 0 min [7]: 0 µM
Trep Concentration 30 min [7]: 0.0159 µM
Trep Concentration 60 min [7]: 0.0303 µM
Trep Concentration 120 min [7]: 0.0592 µM
AUC [7]: 3.62 µmol·min/L
AUC [8]: 0.41 µmol·min/L
AUC [9]: 25.82 µmol·min/L

CCCCCC(CCC1C(O)CC2Cc3c(cccc3OCC(=O)O)CC21)OCC (stereo not drawn) [XLVII]
Trep Concentration 0 min [1]: 0 µM
Trep Concentration 10 min [1]: 0.0448 µM
Trep Concentration 20 min [1]: 0.0686 µM
Trep Concentration 30 min [1]: 0.0816 µM
Trep Concentration 60 min [1]: 0.124 µM
AUC [1]: 4.63 µmol·min/L
Trep Concentration 0 min [2]: 0 µM
Trep Concentration 10 min [2]: 0.0292 µM
Trep Concentration 20 min [2]: 0.0421 µM
Trep Concentration 30 min [2]: 0.0553 µM
Trep Concentration 60 min [2]: 0.0719 µM
Trep Concentration 0 min [3]: 0 µM
Trep Concentration 10 min [3]: 0.0118 µM
Trep Concentration 20 min [3]: 0.0187 µM
Trep Concentration 30 min [3]: 0.0285 µM
Trep Concentration 60 min [3]: 0.0499 µM
Trep Concentration (μM) 0 min [4]: 0 µM
Trep Concentration (μM) 15 min [4]: 0.0152 µM
Trep Concentration (μM) 30 min [4]: 0.0199 µM
Trep Concentration (μM) 60 min [4]: 0.0215 µM
Trep Concentration (μM) 120 min [4]: 0.0212 µM
AUC [4]: 2.28 µmol·min/L
Trep Concentration (μM) 0 min [5]: 0 µM
Trep Concentration (μM) 15 min [5]: 0.0168 µM
Trep Concentration (μM) 30 min [5]: 0.0209 µM
Trep Concentration (μM) 60 min [5]: 0.0231 µM
Trep Concentration (μM) 120 min [5]: 0.0216 µM
AUC [5]: 2.41 µmol·min/L
Trep Concentration (μM) 0 min [6]: 0 µM
Trep Concentration (μM) 15 min [6]: 0 µM
Trep Concentration (μM) 30 min [6]: 0 µM
Trep Concentration (μM) 60 min [6]: 0.00355 µM
Trep Concentration (μM) 120 min [6]: 0.00371 µM
AUC [6]: 0.27 µmol·min/L
Trep Concentration 0 min [7]: 0 µM
AUC [8]: 2.90 µmol·min/L
AUC [9]: 1.62 µmol·min/L

CCCCCC(CCC1C(O)CC2Cc3c(cccc3OCC(=O)O)CC21)OCCC (stereo not drawn) [XLVI]
Trep Concentration 0 min [1]: 0 µM
Trep Concentration 10 min [1]: 0.0342 µM
Trep Concentration 20 min [1]: 0.0556 µM
Trep Concentration 30 min [1]: 0.0656 µM
Trep Concentration 60 min [1]: 0.0835 µM
AUC [1]: 3.46 µmol·min/L
Trep Concentration 0 min [2]: 0 µM
Trep Concentration 10 min [2]: 0.0425 µM
Trep Concentration 20 min [2]: 0.0633 µM
Trep Concentration 30 min [2]: 0.0882 µM
Trep Concentration 60 min [2]: 0.123 µM
Trep Concentration 0 min [3]: 0 µM
Trep Concentration 10 min [3]: 0.0211 µM
Trep Concentration 20 min [3]: 0.0334 µM
Trep Concentration 30 min [3]: 0.0485 µM
Trep Concentration 60 min [3]: 0.0841 µM
Trep Concentration (μM) 0 min [4]: 0 µM
Trep Concentration (μM) 15 min [4]: 0.00507 µM
Trep Concentration (μM) 30 min [4]: 0.00509 µM
Trep Concentration (μM) 60 min [4]: 0.00568 µM
Trep Concentration (μM) 120 min [4]: 0.0061 µM
AUC [4]: 0.63 µmol·min/L
Trep Concentration (μM) 0 min [5]: 0 µM
Trep Concentration (μM) 15 min [5]: 0.0144 µM
Trep Concentration (μM) 30 min [5]: 0.0194 µM
Trep Concentration (μM) 60 min [5]: 0.0209 µM
Trep Concentration (μM) 120 min [5]: 0.0224 µM
AUC [5]: 2.27 µmol·min/L
Trep Concentration (μM) 0 min [6]: 0 µM
Trep Concentration (μM) 15 min [6]: 0.00361 µM
Trep Concentration (μM) 30 min [6]: 0.00376 µM
Trep Concentration (μM) 60 min [6]: 0.00437 µM
Trep Concentration (μM) 120 min [6]: 0.00465 µM
AUC [6]: 0.47 µmol·min/L
Trep Concentration 0 min [7]: 0 µM
Trep Concentration 30 min [7]: 0 µM
Trep Concentration 60 min [7]: 0 µM
Trep Concentration 120 min [7]: 0 µM
AUC [7]: 0.00 µmol·min/L
AUC [8]: 4.67 µmol·min/L
AUC [9]: 2.78 µmol·min/L

CCCCCC(CCC1C(O)CC2Cc3c(cccc3OCC(=O)O)CC21)OC (stereo not drawn) [XLV]
Trep Concentration 0 min [1]: 0.00583 µM
Trep Concentration 10 min [1]: 0.104 µM
Trep Concentration 20 min [1]: 0.156 µM
Trep Concentration 30 min [1]: 0.21 µM
Trep Concentration 60 min [1]: 0.292 µM
AUC [1]: 11.21 µmol·min/L
Trep Concentration 0 min [2]: 0 µM
Trep Concentration 10 min [2]: 0.00607 µM
Trep Concentration 20 min [2]: 0.00992 µM
Trep Concentration 30 min [2]: 0.0162 µM
Trep Concentration 60 min [2]: 0.023 µM
Trep Concentration 0 min [3]: 0 µM
Trep Concentration 10 min [3]: 0 µM
Trep Concentration 20 min [3]: 0.00323 µM
Trep Concentration 30 min [3]: 0.00529 µM
Trep Concentration 60 min [3]: 0.00637 µM
Trep Concentration (μM) 0 min [4]: 0 µM
Trep Concentration (μM) 15 min [4]: 0.0417 µM
Trep Concentration (μM) 30 min [4]: 0.0533 µM
Trep Concentration (μM) 60 min [4]: 0.0724 µM
Trep Concentration (μM) 120 min [4]: 0.0734 µM
AUC [4]: 7.29 µmol·min/L
Trep Concentration (μM) 0 min [5]: 0 µM
Trep Concentration (μM) 15 min [5]: 0.00378 µM
Trep Concentration (μM) 30 min [5]: 0.00483 µM
Trep Concentration (μM) 60 min [5]: 0.00537 µM
Trep Concentration (μM) 120 min [5]: 0.00521 µM
AUC [5]: 0.56 µmol·min/L
Trep Concentration (μM) 0 min [6]: 0 µM
Trep Concentration (μM) 15 min [6]: 0 µM
Trep Concentration (μM) 30 min [6]: 0 µM
Trep Concentration (μM) 60 min [6]: 0 µM
Trep Concentration (μM) 120 min [6]: 0 µM
AUC [6]: 0.00 µmol·min/L
Trep Concentration 0 min [7]: 0 µM
Trep Concentration 30 min [7]: 0 µM
Trep Concentration 60 min [7]: 0 µM
Trep Concentration 120 min [7]: 0 µM
AUC [7]: 0.00 µmol·min/L
AUC [8]: 0.83 µmol·min/L
AUC [9]: 0.23 µmol·min/L

CCCCCC(CCC1C(O)CC2Cc3c(cccc3OCC(=O)O)CC21)OC(=O)CCC(=O)N1CCOCC1 (stereo not drawn) [XXXIII]
Trep Concentration 0 min [1]: 0 µM
Trep Concentration 10 min [1]: 0 µM
Trep Concentration 20 min [1]: 0 µM
Trep Concentration 30 min [1]: 0 µM
Trep Concentration 60 min [1]: 0 µM
AUC [1]: 0.00 µmol·min/L
Trep Concentration 0 min [2]: 0.0107 µM
Trep Concentration 10 min [2]: 0.0193 µM
Trep Concentration 20 min [2]: 0.0291 µM
Trep Concentration 30 min [2]: 0.0305 µM
Trep Concentration 60 min [2]: 0.0498 µM
Trep Concentration 0 min [3]: 0.0247 µM
Trep Concentration 10 min [3]: 0.0494 µM
Trep Concentration 20 min [3]: 0.0751 µM
Trep Concentration 30 min [3]: 0.0888 µM
Trep Concentration 60 min [3]: 0.13 µM
Trep Concentration (μM) 0 min [4]: 0 µM
Trep Concentration (μM) 15 min [4]: 0.0192 µM
Trep Concentration (μM) 30 min [4]: 0.0265 µM
Trep Concentration (μM) 60 min [4]: 0.0464 µM
Trep Concentration (μM) 120 min [4]: 0.0728 µM
AUC [4]: 5.16 µmol·min/L
Trep Concentration (μM) 0 min [5]: 0 µM
Trep Concentration (μM) 15 min [5]: 0.0753 µM
Trep Concentration (μM) 30 min [5]: 0.132 µM
Trep Concentration (μM) 60 min [5]: 0.18 µM
Trep Concentration (μM) 120 min [5]: 0.238 µM
AUC [5]: 19.34 µmol·min/L
Trep Concentration (μM) 0 min [6]: 0 µM
Trep Concentration (μM) 15 min [6]: 0.0287 µM
Trep Concentration (μM) 30 min [6]: 0.03796 µM
Trep Concentration (μM) 60 min [6]: 0.0584 µM
Trep Concentration (μM) 120 min [6]: 0.0754 µM
AUC [6]: 6.18 µmol·min/L
Trep Concentration 0 min [7]: 0 µM
Trep Concentration 30 min [7]: 0 µM
Trep Concentration 60 min [7]: 0 µM
Trep Concentration 120 min [7]: 0 µM
AUC [7]: 0.00 µmol·min/L
AUC [8]: 1.90 µmol·min/L
AUC [9]: 5.10 µmol·min/L
